Results from publication PMC3713777 (Bioorganic & medicinal chemistry, 2010).

Columns and labels:
SERT = SERT binding, inhibition of [3H]paroxetine; conditions: ratio of Ki values taken from reference 21
NET = conditions: read-out: NET (Ki); value taken from the literature; cited from earlier work
[1] = target: serotonin transporter (SERT) (Rattus norvegicus, UniProt P31652); test: [3H]citalopram binding assay; conditions: ratio of Ki values measured in this paper
serotonin transporter (SERT), sequence (P31652 whole entry): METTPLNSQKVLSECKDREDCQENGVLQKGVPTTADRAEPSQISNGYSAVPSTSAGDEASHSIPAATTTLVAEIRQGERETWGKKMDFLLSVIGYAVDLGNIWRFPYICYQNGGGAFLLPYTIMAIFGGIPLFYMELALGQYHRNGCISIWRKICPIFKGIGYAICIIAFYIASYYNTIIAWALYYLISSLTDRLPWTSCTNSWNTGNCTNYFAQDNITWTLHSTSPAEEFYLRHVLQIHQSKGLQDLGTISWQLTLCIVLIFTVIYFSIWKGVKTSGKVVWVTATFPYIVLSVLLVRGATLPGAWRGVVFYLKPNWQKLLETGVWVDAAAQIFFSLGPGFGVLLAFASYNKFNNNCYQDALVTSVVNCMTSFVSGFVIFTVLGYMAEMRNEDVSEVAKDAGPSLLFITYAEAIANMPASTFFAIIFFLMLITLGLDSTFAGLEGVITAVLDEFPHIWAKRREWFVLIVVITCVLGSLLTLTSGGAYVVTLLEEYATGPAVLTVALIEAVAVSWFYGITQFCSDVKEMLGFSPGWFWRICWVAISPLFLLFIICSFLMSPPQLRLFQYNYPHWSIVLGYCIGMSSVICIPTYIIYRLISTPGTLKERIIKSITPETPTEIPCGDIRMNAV

SMILES	NET/SERT (SERT)	DAT/SERT [1]	also measured
CCOC(=O)C1(c2ccc(Cl)c(Cl)c2)CCN(C)CC1.Cl [Compound 2a]	4,000	–	Ki (NET): 74.5 µM
CCOC(=O)C1(c2ccc(I)cc2)CCN(C)CC1.Cl [Compound 2c]	25,000	–	–
CCOC(=O)C1(c2ccc3ccccc3c2)CCN(C)CC1.Cl [Compound 2d]	9,900	–	–
CCOC(=O)C1(c2ccc(I)cc2)CCNCC1.Cl [Compound 4c, Ethyl 4-(4-iodophenyl)-piperidine-4-carboxylate]	–	1,400	–
CN1CCC(C(=O)OCc2ccc(Cl)c(Cl)c2)(c2ccc(Cl)c(Cl)c2)CC1.Cl [Compound 8d, 3,4-Dichlorobenzyl 4-(3,4-dichlorophenyl)-1-methylpiperidine-4-carboxylate]	–	1,200	–
Cl.O=C(OCc1ccccc1)C1(c2ccc(Cl)c(Cl)c2)CCNCC1 [Compound 12a, Benzyl 4-(3,4-dichlorophenyl) piperidine-4-carboxylate]	–	100	–
O=C(O)C(=O)O.O=C(OCc1ccc(Cl)c(Cl)c1)C1(c2ccc(I)cc2)CCNCC1 [Compound 14c, 3,4-Dichlorobenzyl 4-(4-iodophenyl) piperidine-4-carboxylate]	–	–	NET/SERT [1]: 1,000
